SMILES strings stand for the structures.

human M3 receptor, sequence (P20309 whole entry): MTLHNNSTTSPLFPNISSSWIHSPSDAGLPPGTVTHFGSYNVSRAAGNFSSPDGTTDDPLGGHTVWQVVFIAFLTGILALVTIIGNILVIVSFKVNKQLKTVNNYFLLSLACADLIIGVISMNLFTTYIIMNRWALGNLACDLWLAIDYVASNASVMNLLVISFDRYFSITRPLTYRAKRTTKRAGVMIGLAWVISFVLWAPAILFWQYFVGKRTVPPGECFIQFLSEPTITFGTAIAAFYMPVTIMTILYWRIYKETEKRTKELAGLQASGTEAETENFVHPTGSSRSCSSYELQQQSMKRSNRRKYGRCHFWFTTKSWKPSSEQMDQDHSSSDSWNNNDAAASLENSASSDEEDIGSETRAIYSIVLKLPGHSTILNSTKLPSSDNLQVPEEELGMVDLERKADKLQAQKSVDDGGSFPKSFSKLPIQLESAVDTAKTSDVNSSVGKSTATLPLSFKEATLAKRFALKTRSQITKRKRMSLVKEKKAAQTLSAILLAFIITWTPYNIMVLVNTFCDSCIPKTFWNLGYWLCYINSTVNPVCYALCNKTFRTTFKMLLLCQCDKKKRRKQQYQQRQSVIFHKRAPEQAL

One data set deals with human living skin equivalents.
Test: not given
The class given is cell-based.
Conditions: not given
As for `O=C(N1CCN(CCCc2ccccc2)CC1)C(O)(c1ccccc1)C1CCCC1` (stereo not drawn) [Compound 7d], the “% Increase in Ki-67 stained positive cells over vehicle” value came out at 127%.

Another data set concerns the target human M3 receptor (Homo sapiens (Human), UniProt P20309). As to the kind of experiment: Muscarinic 3 receptor binding assay (3H-scopolamine displacement).
Conditions: not given
As for the experimental part:
The muscarinic 3 receptor binding assay was adapted from Perkin Elmer. […] Atropine (Sigma-Aldrich, St. Louis, Mo.) was used as a positive control. […] The reaction mixtures were then added to matrix 96-well GFC filtration microtiter plates that had been previously pretreated with 0.5% polyethylimine (100 μL) for 4 h and filtered. The binding reactions were terminated by filtering through the GFC plates and washing & filtering with ice-cold phosphate saline buffer (5×100 μL). Once the filters were dry, microscint scintillation cocktail (100 μL) was added to each well, allowed to sit for 20 min and the plates analyzed using a TopCount scintillation counter. […] Curve fitting of % inhibition versus concentration using Excell software allowed determination of IC50 values for test compounds.
As usually defined, the IC50 is the concentration needed to halve the response being measured. Low readings indicate higher potency, high ones lower potency. Take `CC(Cc1ccc2c(c1)OCO2)CN1CCN(C(=O)C(O)(c2ccccc2)C2CCCC2)CC1` (stereo not drawn) [Compound 7i]: the 50% inhibitory concentration (IC50) worked out at 4.6 µM.

In turn, `O=C(N1CCN(CCc2ccccc2)CC1)C(O)(c1ccccc1)C1CCCC1` (stereo not drawn) [Compound 7f] displayed an IC50 of 4.7 µM.

Regarding `O=C(N1CCN(C/C=C/c2ccccc2)CC1)C(O)(c1ccccc1)C1CCCC1` (stereo not drawn) [Compound 7e], the IC50 was 0.195 µM. Compared with the last compound, the IC50 is about 24-fold lower.

Turning to `O=C(N1CCN(CCCc2ccccc2)CC1)C(O)(c1ccccc1)C1CCCC1` (stereo not drawn) [Compound 7d], the IC50 turned out to be 0.063 µM.

`O=C(CN1CCN(C(=O)C(O)(c2ccccc2)C2CCCC2)CC1)c1ccccc1` (stereo not drawn) [Compound 9h] had an IC50 of 2.7 µM. This IC50 lies about 43-fold higher than the previous one.

`O=C(N1CCN(CCOc2ccccc2)CC1)C(O)(c1ccccc1)C1CCCC1` (stereo not drawn) [Compound 9c] came in with an IC50 of 1.2 µM.

As to `O=C(C(c1ccccc1)C1CCCC1)N1CCN(CCc2ccccc2)CC1` (stereo not drawn) [Compound 7a], the IC50 came to 1.8 µM.

Consider `O=C(N1CCN(CC(O)c2ccccc2)CC1)C(O)(c1ccccc1)C1CCCC1` (stereo not drawn) [Compound 11], for which the IC50 amounted to 4.3 µM.

For the compound `COc1ccc(CCN2CCN(C(=O)C(O)(c3ccccc3)C3CCCC3)CC2)cc1` (stereo not drawn) [Compound 9d], the IC50 amounted to 0.357 µM.

Staying with this data set, now noted: CHO cell membranes expressing human M3 receptor, 3H-scopolamine.
`O=C(C(c1ccccc1)C1CCCC1)N1CCN(CCCc2ccccc2)CC1` (stereo not drawn) [Compound 7b] came in with a 50% inhibitory concentration (IC50) of 2.1 µM.

`CN1CCCN(C(=O)C(c2ccccc2)C2CCCC2)CC1` (stereo not drawn) [Compound 3f] gave an IC50 of 0.409 µM.

Consider `CN1CCN(C(=O)C(c2ccccc2)C2CCCC2)CC1` (stereo not drawn) [Compound 3b], for which the 50% inhibitory concentration (IC50) stood at 2.1 µM.

On to `CCCCCCN1CCN(C(=O)C(c2ccccc2)C2CCCC2)CC1` (stereo not drawn) [Compound 3d], for which the IC50 was determined as 7.9 µM.

With `O=C(C(c1ccccc1)C1CCCC1)N1CCN(CCC2CCCCC2)CC1` (stereo not drawn) [Compound 9a], the IC50 came out at 6 µM.

`CN1CCN(C(=O)C(c2ccccc2)C2CCCCC2)CC1` (stereo not drawn) [Compound 3a] had an IC50 of 5.3 µM.

Take `O=C(C(c1ccccc1)C1CCCC1)N1CCN(C/C=C/c2ccccc2)CC1` (stereo not drawn) [Compound 7c]: the IC50 turned out to be 0.599 µM.

System in another data set: not listed separately
As to the kind of experiment: pH measurements of test compound solutions. The class given is physicochemical.
Conditions: not given
The procedure: Equimolar amounts of test compounds were used instead of weight % amounts to ensure a fair (molar-basis) comparison between test compounds. […] The pH of all test solutions was measured @ 22° C. using a Corning pH meter model 430 with a flat surface combo w/RJ electrode. The pH meter was calibrated using standard pH 7 & 12 buffers.
For `O=C(N1CCCNCC1)C(O)(c1ccccc1)C1CCCC1` (stereo not drawn) [Compound 6j], the “Measured pH of solution” value was 9.9.

As to `O=C(N1CCNCC1)C(O)(c1ccccc1)C1CCCC1` (stereo not drawn) [Compound 6b], the “Measured pH of solution” value worked out at 10.0.

Still in this data set, the particulars now being: 79 mM (equimolar) in isopropyl alcohol/water, 22° C.
Take `CN1CCNCC1` [Compound 14]: the “Measured pH of solution” value is recorded as 11.0.

As for `CN1CCCNCC1` [Compound 15], the “Measured pH of solution” value was determined as 11.5.
